“And” between values parts separate entries of the source, which are not always exact repeats. Equal entries are not always repeated.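 Cells were grown in 96-well plates and exposed to each compound for 48 hours at five concentrations; endpoints were interpolated linearly between bracketing concentrations, or set to the highest concentration if not reached. Here, GI50 denotes the concentration required for 50% inhibition of growth. The concentration for full growth arrest is given as TGI.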
How the values were obtained:
Experiment in all cases: growth of human tumour cells (NCI), 48 h
NCI-H226 lung = system: NCI-H226 lung
SF-295 CNS = system: SF-295 CNS
IGROV1 ovarian = system: IGROV1 ovarian
SK-OV-3 ovarian = system: SK-OV-3 ovarian
BT-549 breast = system: BT-549 breast
HCT-116 colon = system: HCT-116 colon
RPMI-8226 leukemia = system: RPMI-8226 leukemia
CAKI-1 renal = system: CAKI-1 renal
ACHN renal = system: ACHN renal
TK-10 renal = system: TK-10 renal
SNB-19 CNS = system: SNB-19 CNS
DU-145 prostate = system: DU-145 prostate
HS 578T breast = system: HS 578T breast
OVCAR-8 ovarian = system: OVCAR-8 ovarian
HT29 colon = system: HT29 colon
RXF 393 renal = system: RXF 393 renal
HOP-92 NSCLC = system: HOP-92 NSCLC
UACC-257 melanoma = system: UACC-257 melanoma
OVCAR-5 ovarian = system: OVCAR-5 ovarian
KM12 colon = system: KM12 colon
SK-MEL-2 melanoma = system: SK-MEL-2 melanoma
UO-31 renal = system: UO-31 renal
MCF7 breast = system: MCF7 breast
OVCAR-4 ovarian = system: OVCAR-4 ovarian
OVCAR-3 ovarian = system: OVCAR-3 ovarian
SW-620 colon = system: SW-620 colon
PC-3 prostate = system: PC-3 prostate
LOX IMVI melanoma = system: LOX IMVI melanoma
CCRF-CEM leukemia = system: CCRF-CEM leukemia
MDA-MB-435 = system: MDA-MB-435
NCI-H522 lung = system: NCI-H522 lung
SF-539 CNS = system: SF-539 CNS
SR leukemia = system: SR leukemia
HCT-15 colon = system: HCT-15 colon
786-0 renal = system: 786-0 renal
SF-268 CNS = system: SF-268 CNS
U251 CNS = system: U251 CNS
T-47D breast = system: T-47D breast
NCI-H460 lung = system: NCI-H460 lung
MOLT-4 leukemia = system: MOLT-4 leukemia
NCI/ADR-RES ovarian = system: NCI/ADR-RES ovarian
A549 NSCLC = system: A549 NSCLC
K-562 leukemia = system: K-562 leukemia
HCC-2998 colon = system: HCC-2998 colon
M14 melanoma = system: M14 melanoma
HL-60(TB) leukemia = system: HL-60(TB) leukemia
HOP-62 NSCLC = system: HOP-62 NSCLC
A498 renal = system: A498 renal
UACC-62 melanoma = system: UACC-62 melanoma
MALME-3M melanoma = system: MALME-3M melanoma
SK-MEL-5 melanoma = system: SK-MEL-5 melanoma
SN12C renal = system: SN12C renal
EKVX NSCLC = system: EKVX NSCLC
COLO 205 colon = system: COLO 205 colon
SNB-75 CNS = system: SNB-75 CNS
SK-MEL-28 melanoma = system: SK-MEL-28 melanoma
NCI-H23 lung = system: NCI-H23 lung
MDA-MB-231 breast = system: MDA-MB-231 breast

COc1cc(C2C3=C(COC3=O)N(CCO)c3cc4c(cc32)OCO4)cc(OC)c1OC (stereo not given)
GI50 (NCI-H226 lung): > 12500 nM and 2940 nM | TGI (NCI-H226 lung): > 16800 nM | GI50 (SF-295 CNS): 537 nM and 235 nM | GI50 (IGROV1 ovarian): 328 nM and 625 nM | TGI (IGROV1 ovarian): 1970 nM and 6300 nM | GI50 (SK-OV-3 ovarian): 456 nM and 491 nM | TGI (SK-OV-3 ovarian): 7710 nM and > 16800 nM | GI50 (BT-549 breast): 4330 nM and 834 nM | TGI (BT-549 breast): 12500 nM and 9330 nM | GI50 (HCT-116 colon): 468 nM and 524 nM | TGI (HCT-116 colon): 12500 nM and 13800 nM | GI50 (RPMI-8226 leukemia): 521 nM and 715 nM | TGI (RPMI-8226 leukemia): 12500 nM and > 16800 nM | GI50 (CAKI-1 renal): 8660 nM and 2390 nM | TGI (CAKI-1 renal): 12500 nM and > 16800 nM | GI50 (ACHN renal): 1090 nM and 925 nM | TGI (ACHN renal): 12500 nM and > 16800 nM | GI50 (TK-10 renal): 1240 nM and 2730 nM | TGI (TK-10 renal): 12500 nM and > 16800 nM | GI50 (SNB-19 CNS): 408 nM and 720 nM | TGI (SNB-19 CNS): 6650 nM and > 16800 nM | GI50 (DU-145 prostate): 342 nM and 550 nM | TGI (DU-145 prostate): 1020 nM and 2590 nM | GI50 (HS 578T breast): 276 nM and 268 nM | GI50 (OVCAR-8 ovarian): 427 nM and 770 nM | TGI (OVCAR-8 ovarian): 12500 nM and > 16800 nM | GI50 (HT29 colon): 403 nM and 585 nM | TGI (HT29 colon): 1940 nM and 2030 nM | GI50 (RXF 393 renal): 176 nM and 337 nM | TGI (RXF 393 renal): 501 nM and 931 nM | GI50 (HOP-92 NSCLC): 6020 nM and 5990 nM | TGI (HOP-92 NSCLC): 12500 nM and > 16800 nM | TGI (UACC-257 melanoma): 12500 nM and > 16800 nM | GI50 (OVCAR-5 ovarian): 1660 nM and 500 nM | TGI (OVCAR-5 ovarian): 12500 nM and > 16800 nM | GI50 (KM12 colon): 334 nM and 462 nM | TGI (KM12 colon): 2310 nM and 8860 nM | GI50 (SK-MEL-2 melanoma): 298 nM and 979 nM | TGI (UO-31 renal): 12500 nM and > 16800 nM | GI50 (MCF7 breast): 409 nM and 426 nM | TGI (MCF7 breast): 12500 nM and > 16800 nM | GI50 (OVCAR-4 ovarian): 706 nM and 987 nM | TGI (OVCAR-4 ovarian): 12500 nM and > 16800 nM | GI50 (OVCAR-3 ovarian): 244 nM and 319 nM | TGI (OVCAR-3 ovarian): 542 nM and 668 nM | GI50 (SW-620 colon): 439 nM and 697 nM | TGI (SW-620 colon): 12500 nM and > 16800 nM | GI50 (PC-3 prostate): 611 nM and 612 nM | TGI (PC-3 prostate): 12500 nM and > 16800 nM | GI50 (LOX IMVI melanoma): 976 nM | TGI (LOX IMVI melanoma): > 16800 nM | GI50 (CCRF-CEM leukemia): 473 nM and 802 nM | TGI (CCRF-CEM leukemia): 12500 nM and > 16800 nM | GI50 (MDA-MB-435): 175 nM and 151 nM | TGI (MDA-MB-435): 592 nM and 616 nM | GI50 (NCI-H522 lung): 173 nM and 260 nM | TGI (NCI-H522 lung): 666 nM and 1250 nM | GI50 (SF-539 CNS): 323 nM and 434 nM | TGI (SF-539 CNS): 947 nM and 3010 nM | GI50 (SR leukemia): 323 nM | TGI (SR leukemia): > 16800 nM | GI50 (HCT-15 colon): 1520 nM and 1130 nM | TGI (HCT-15 colon): 12500 nM and > 16800 nM | GI50 (786-0 renal): 474 nM and 754 nM | TGI (786-0 renal): 12500 nM and > 16800 nM | GI50 (SF-268 CNS): 321 nM and 872 nM | TGI (SF-268 CNS): 2050 nM and > 16800 nM | GI50 (U251 CNS): 500 nM and 631 nM | TGI (U251 CNS): 12500 nM and > 16800 nM | GI50 (T-47D breast): 474 nM | TGI (T-47D breast): 12500 nM | GI50 (NCI-H460 lung): 438 nM and 542 nM | TGI (NCI-H460 lung): 12500 nM and 3400 nM | GI50 (MOLT-4 leukemia): 675 nM and 4390 nM | TGI (MOLT-4 leukemia): 12500 nM and > 16800 nM | GI50 (NCI/ADR-RES ovarian): 3920 nM and 14800 nM | TGI (NCI/ADR-RES ovarian): 12500 nM and > 16800 nM | GI50 (A549 NSCLC): 595 nM and 1060 nM | TGI (A549 NSCLC): 12500 nM and > 16800 nM | GI50 (K-562 leukemia): 406 nM and 489 nM | TGI (K-562 leukemia): 12500 nM and > 16800 nM | GI50 (HCC-2998 colon): 697 nM and 702 nM | TGI (HCC-2998 colon): 6210 nM and 5110 nM | GI50 (M14 melanoma): 311 nM and 363 nM | TGI (M14 melanoma): 926 nM and 1380 nM | GI50 (HL-60(TB) leukemia): 343 nM and 629 nM | GI50 (HOP-62 NSCLC): 779 nM and 738 nM | TGI (HOP-62 NSCLC): 12500 nM and > 16800 nM | GI50 (A498 renal): 257 nM and 407 nM | TGI (A498 renal): 1070 nM and 8820 nM | GI50 (UACC-62 melanoma): 1000 nM and 565 nM | TGI (UACC-62 melanoma): 12500 nM and > 16800 nM | GI50 (MALME-3M melanoma): 532 nM and 745 nM | TGI (MALME-3M melanoma): 12500 nM and > 16800 nM | GI50 (SK-MEL-5 melanoma): 359 nM and 561 nM | TGI (SK-MEL-5 melanoma): 2460 nM and 4350 nM | GI50 (SN12C renal): 1250 nM and 1130 nM | TGI (SN12C renal): 12500 nM and > 16800 nM | GI50 (EKVX NSCLC): 6650 nM and 1030 nM | TGI (EKVX NSCLC): 12500 nM and > 16800 nM | GI50 (COLO 205 colon): 360 nM and 332 nM | TGI (COLO 205 colon): 1020 nM and 765 nM | GI50 (SNB-75 CNS): 514 nM and 251 nM | TGI (SNB-75 CNS): 12500 nM and > 16800 nM | GI50 (SK-MEL-28 melanoma): 706 nM and 1080 nM | TGI (SK-MEL-28 melanoma): 12500 nM and > 16800 nM | GI50 (NCI-H23 lung): 412 nM and 574 nM | TGI (NCI-H23 lung): 2460 nM and > 16800 nM | GI50 (MDA-MB-231 breast): 971 nM and 1600 nM | TGI (MDA-MB-231 breast): 12500 nM and > 16800 nM

Reference: PubChem BioAssay (NCI)
